Reference: patent publication US4536335A, “Carbapenem antibiotics” (Bristol-Myers Company, priority 1983, dated 1985)
Values after ≈ are worked out from the molar mass of the structure shown. Where two headings read alike, the source gives them in different places.

Tests used:
[1] = tested on: S. pneumoniae A-9585; assay: In vitro MIC, tube dilution; type: cell-based; conditions: overnight incubation at 37° C.; for MIC: Streptococcus pneumoniae, A9585, Nutrient Broth
[2] = tested on: S. pyogenes A-9604; assay: In vitro MIC, tube dilution; type: cell-based; conditions: Nutrient Broth, overnight incubation at 37° C.; for MIC: Streptococcus pyogenes, A9604, tube dilution
[3] = tested on: S. aureus A-9606 (Pen-res.); assay: In vitro MIC, tube dilution; type: cell-based; conditions: Nutrient Broth, overnight incubation at 37° C.; for MIC: Staphylococcus aureus
[4] = tested on: S. faecalis A20688; assay: In vitro MIC, tube dilution; type: cell-based; conditions: Nutrient Broth, overnight incubation at 37° C.; for MIC: Enterococcus faecalis, A20688, tube dilution
[5] = tested on: K. pneumoniae A-9664; assay: In vitro MIC, tube dilution; type: cell-based; conditions: Nutrient Broth, overnight incubation at 37° C.; for MIC: Klebsiella pneumoniae, A9664, tube dilution
[6] = tested on: K. pneumoniae A20468; assay: In vitro MIC, tube dilution; type: cell-based; conditions: Klebsiella pneumoniae, A20468, tube dilution, Nutrient Broth, overnight incubation at 37° C.
[7] = tested on: P. mirabilis A-9900; assay: In vitro MIC, tube dilution; type: cell-based; conditions: Nutrient Broth, overnight incubation at 37° C.; for MIC: Proteus mirabilis, A9900, tube dilution
[8] = tested on: P. morganii A15153; assay: In vitro MIC, tube dilution; type: cell-based; conditions: Morganella morganii, A15153, tube dilution, Nutrient Broth, overnight incubation at 37° C.; read-out: MIC P. morganii A15153
[9] = tested on: P. rettgeri A22424; assay: In vitro MIC, tube dilution; type: cell-based; conditions: Providencia rettgeri, A22424, tube dilution, Nutrient Broth, overnight incubation at 37° C.
[10] = tested on: S. marcescens A20019; assay: In vitro MIC, tube dilution; type: cell-based; conditions: tube dilution, Nutrient Broth, overnight incubation at 37° C.
[11] = tested on: B. fragilis A22053; assay: In vitro MIC, tube dilution; type: cell-based; conditions: Bacteroides fragilis, Nutrient Broth, overnight incubation at 37° C.
Excerpt: (§1) N-Formimidoyl thienamycin was included as a comparison compound.

[12] = tested on: B. fragilis A22696; assay: In vitro MIC, tube dilution; type: cell-based; conditions: Bacteroides fragilis, Nutrient Broth, overnight incubation at 37° C.
Excerpt: as §1

[13] = tested on: B. fragilis A22863; assay: In vitro MIC, tube dilution; type: cell-based; conditions: Bacteroides fragilis, Nutrient Broth, overnight incubation at 37° C.
Excerpt: as §1

[14] = tested on: E. cloacae A-9569; assay: In vitro MIC, tube dilution; type: cell-based; conditions: Enterobacter cloacae, A9569, Nutrient Broth, overnight incubation at 37° C.
Excerpt: as §1

[15] = tested on: E. cloacae A-9656; assay: In vitro MIC, tube dilution; type: cell-based; conditions: tube dilution, Nutrient Broth, overnight incubation at 37° C.
[16] = tested on: P. aeruginosa A-9843A; assay: In vitro MIC, tube dilution; type: cell-based; conditions: Pseudomonas aeruginosa, A9843A, Nutrient Broth, overnight incubation at 37° C.
[17] = tested on: P. aeruginosa A21213; assay: In vitro MIC, tube dilution; type: cell-based; conditions: Nutrient Broth, overnight incubation at 37° C.; for MIC: Pseudomonas aeruginosa, A21213, tube dilution
[18] = tested on: P. aeruginosa A-9843a; assay: Protective effect in the intramuscular treatment of infected mice (PD50); type: in vivo; conditions: Pseudomonas aeruginosa, A9843A, im
Protocol: The PD50 (dose in mg/kg required to give protection to 50% of the infected mice) is indicated.
Treatment Schedule: Mice were treated i.m. with drugs 0 and 2 hours post-infection; 5 mice per dose were used for each test
*For compound of Ex. 2, mice were infected i.p. with 2 × 10^9
compounds of Ex. 4 and 5, mice were infected i.p. with ~9 ×
were treated i.m. with drugs 0 and 2 h postinfection.

[19] = tested on: P. aeruginosa A20481; assay: as above; type: in vivo; conditions: Pseudomonas aeruginosa, A20481, im; mice infected i.p. (Ex. 2: 1 × 10^5 organisms), treated i.m. 0 and 2 h postinfection
[20] = tested on: S. aureus A-9606; assay: as above; type: in vivo; conditions: Staphylococcus aureus, A9606, im, read-out: PD50/treatment, S. aureus A-9606, mice infected i.p. (Ex. 2: 2 × 10^9 organisms; Ex. 4 and 5: ~9 × 10^7), treated i.m. 0 and 2 h postinfection
[21] = Blood levels in mice after intramuscular administration; type: in vivo; conditions: mouse, intramuscular dose of 20 mg/kg
Excerpt: Compounds were solubilized in 0.1 M phosphate buffer pH 7. Values are fro
a single test; 4 mice used per compound.
*t1/2 refers to halflife in minutes
**AUC refers to the area under the blood concentrationtime curve
(§2) Also shown is the urinary recovery in the mice.
Compounds were solubilized in 0.1 M phosphate buffer, pH 7.
Values based on a single test; 4 mice per compound.
*T1/2 refers to halflife in minutes

[22] = Urinary recovery after intramuscular administration to mice; type: in vivo; conditions: mouse, urine, im, 20 mg/kg, mice, i.m. 20 mg/kg, 6-24 hours after administration; read-out: Percentage of Dose Recovered in urine, 6-24 hours
Protocol: Compounds were solubilized in 0.1 M phosphate buffer pH 7. Values are from a single test; 4 mice per compound.
as §2
***Recovery based on 0-6 hour collection

[23] = tube dilution, additional data table, listed as MK 0787

Question: With `C[C@@H](O)[C@H]1C(=O)N2C(C(=O)O)=C(SCCN=CN)C[C@H]12` [N-Formimidoyl Thienamycin, N-formimidoyl thienamycin, reference compound] as the compound, how does the “MIC S. pneumoniae A-9585” value ([1]; Nutrient Broth, additional data table, listed as MK 0787) read?
Answer: 0.001 µg/mL (≈ 0.00334 µM)

Question: What about the MIC [1] of the same compound?
Answer: 0.004 µg/mL (≈ 0.0134 µM)

Question: What about the MIC ([1]; additional data table) of the same compound?
Answer: 0.002 µg/mL (≈ 0.00668 µM)

Question: And the MIC [2]?
Answer: 0.001 µg/mL (≈ 0.00334 µM)

Question: And the MIC ([2]; additional data table)?
Answer: 0.002 µg/mL (≈ 0.00668 µM)

Question: What about the “MIC S. pyogenes A-9604” value [2, 23] of the same compound?
Answer: 0.001 µg/mL (≈ 0.00334 µM)

Question: What about the “MIC S. aureus (Pen-res.) A-9606” value ([3]; additional data table, listed as MK 0787) of the same compound?
Answer: 0.004 µg/mL (≈ 0.0134 µM)

Question: And the MIC ([3]; additional data table, read-out: MIC S. aureus (Pen-res.) A-9606)?
Answer: 0.008 µg/mL (≈ 0.0267 µM)

Question: And the MIC ([3]; read-out: MIC S. aureus A-9606 (Pen-res.))?
Answer: 0.008 µg/mL (≈ 0.0267 µM)

Question: And the MIC [4]?
Answer: 0.5 µg/mL (≈ 1.67 µM)

Question: And the MIC ([4]; additional data table)?
Answer: 0.25 µg/mL (≈ 0.835 µM)

Question: And the “MIC S. faecalis A20688” value [4, 23]?
Answer: 0.5 µg/mL (≈ 1.67 µM)

Question: What about the MIC [5] of the same compound?
Answer: 0.13 µg/mL (≈ 0.434 µM)

Question: And the MIC ([5]; additional data table)?
Answer: 0.03 µg/mL (≈ 0.1 µM)

Question: And the “MIC K. pneumoniae A-9664” value [5, 23]?
Answer: 0.06 µg/mL (≈ 0.2 µM)

Question: And the MIC [6]?
Answer: 0.06 µg/mL (≈ 0.2 µM)

Question: And the MIC [7]?
Answer: 0.06 µg/mL (≈ 0.2 µM)

Question: And the MIC ([7]; additional data table)?
Answer: 0.03 µg/mL (≈ 0.1 µM)

Question: And the “MIC P. mirabilis A-9900” value [7, 23]?
Answer: 0.06 µg/mL (≈ 0.2 µM)

Question: And the MIC [8]?
Answer: 0.13 µg/mL (≈ 0.434 µM)

Question: And the MIC [9]?
Answer: 0.25 µg/mL (≈ 0.835 µM)

Question: What about the MIC ([9]; additional data table) of the same compound?
Answer: 0.13 µg/mL (≈ 0.434 µM)

Question: And the MIC ([10]; Serratia marcescens, A20019)?
Answer: 0.03 µg/mL (≈ 0.1 µM)

Question: And the “MIC S. marcescens A20019” value ([10]; additional data table)?
Answer: 0.03 µg/mL (≈ 0.1 µM)

Question: And the MIC [11]?
Answer: 0.06 µg/mL (≈ 0.2 µM)

Question: And the MIC [12]?
Answer: 0.13 µg/mL (≈ 0.434 µM)

Question: What about the MIC [13] of the same compound?
Answer: 1 µg/mL (≈ 3.34 µM)

Question: What about the MIC [14] of the same compound?
Answer: 0.06 µg/mL (≈ 0.2 µM)

Question: And the MIC ([15]; Enterobacter cloacae, A9656)?
Answer: 0.06 µg/mL (≈ 0.2 µM)

Question: What about the “MIC E. cloacae A-9656” value ([15]; additional data table) of the same compound?
Answer: 0.06 µg/mL (≈ 0.2 µM)

Question: And the MIC [16]?
Answer: 1 µg/mL (≈ 3.34 µM)

Question: What about the MIC ([16]; additional data table) of the same compound?
Answer: 1 µg/mL (≈ 3.34 µM)

Question: What about the MIC [17] of the same compound?
Answer: 0.25 µg/mL (≈ 0.835 µM)

Question: What about the MIC ([17]; additional data table) of the same compound?
Answer: 0.13 µg/mL (≈ 0.434 µM)

Question: And the “MIC P. aeruginosa A21213” value [17, 23]?
Answer: 0.25 µg/mL (≈ 0.835 µM)

Question: And the ED50 ([18]; read-out: PD50/treatment, P. aeruginosa A9843A)?
Answer: 1 mg/kg

Question: And the ED50 ([18]; mice, i.m., *Historical data, read-out: PD50/Treatment, P. aeruginosa A-9843a (historical data))?
Answer: 0.5 mg/kg

Question: And the ED50 [19]?
Answer: 0.4 mg/kg

Question: What about the ED50 [20] of the same compound?
Answer: 0.07 mg/kg

Question: What about the “Blood AUC” value [21] of the same compound?
Answer: 6000 ng·h/mL

Question: What about the dose excreted at 24 h [22] of the same compound?
Answer: < 0.1%
